# Experimental data: patent US12465594B2 (Brown University, priority 2018, dated 2025)
# Assays:
# [1] = target: CRF2 (Homo sapiens, UniProt Q13324); assay: CRF2 Ca2+ assay (absence of CRFBP(10 kD)); conditions: presence of EC80 CRF
# [2] = target: Beta2 (Homo sapiens, UniProt P07550); assay: PDSP binding assay; conditions: 10 μM, quadruplicate, cloned target
# [3] = target: Alpha2C (Homo sapiens, UniProt P18825); assay: PDSP binding assay; conditions: 10 μM, quadruplicate, cloned target
# [4] = target: M1 (Homo sapiens, UniProt P11229); assay: PDSP binding assay; conditions: 10 μM, quadruplicate, cloned target
# Sequence of M1 (P11229 whole entry): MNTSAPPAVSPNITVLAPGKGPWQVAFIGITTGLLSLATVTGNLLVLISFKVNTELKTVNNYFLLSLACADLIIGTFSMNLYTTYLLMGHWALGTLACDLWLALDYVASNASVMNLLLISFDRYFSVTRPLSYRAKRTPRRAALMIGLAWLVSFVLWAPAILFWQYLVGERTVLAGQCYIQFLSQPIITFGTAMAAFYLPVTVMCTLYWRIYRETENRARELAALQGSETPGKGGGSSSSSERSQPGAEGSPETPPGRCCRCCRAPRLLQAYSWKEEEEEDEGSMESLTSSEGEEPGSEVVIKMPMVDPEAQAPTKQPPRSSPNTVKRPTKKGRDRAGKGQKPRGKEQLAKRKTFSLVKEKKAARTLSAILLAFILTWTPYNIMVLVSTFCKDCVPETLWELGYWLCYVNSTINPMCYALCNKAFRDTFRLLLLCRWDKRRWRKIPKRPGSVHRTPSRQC
# [5] = target: MOR (Homo sapiens, UniProt P35372); assay: PDSP binding assay; conditions: 10 μM, quadruplicate, cloned target
# Sequence of MOR (P35372 whole entry): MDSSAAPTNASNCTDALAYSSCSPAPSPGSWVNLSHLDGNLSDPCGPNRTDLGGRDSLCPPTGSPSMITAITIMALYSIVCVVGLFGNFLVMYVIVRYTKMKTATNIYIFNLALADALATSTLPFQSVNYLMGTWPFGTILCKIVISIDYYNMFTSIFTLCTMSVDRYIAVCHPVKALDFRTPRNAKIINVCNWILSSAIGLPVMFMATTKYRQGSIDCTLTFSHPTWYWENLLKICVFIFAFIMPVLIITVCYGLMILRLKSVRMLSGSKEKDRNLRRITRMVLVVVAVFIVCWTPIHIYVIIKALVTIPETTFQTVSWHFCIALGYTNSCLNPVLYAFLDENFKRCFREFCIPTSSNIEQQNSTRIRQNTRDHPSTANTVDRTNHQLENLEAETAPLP
# Sequence of Beta2 (P07550 whole entry): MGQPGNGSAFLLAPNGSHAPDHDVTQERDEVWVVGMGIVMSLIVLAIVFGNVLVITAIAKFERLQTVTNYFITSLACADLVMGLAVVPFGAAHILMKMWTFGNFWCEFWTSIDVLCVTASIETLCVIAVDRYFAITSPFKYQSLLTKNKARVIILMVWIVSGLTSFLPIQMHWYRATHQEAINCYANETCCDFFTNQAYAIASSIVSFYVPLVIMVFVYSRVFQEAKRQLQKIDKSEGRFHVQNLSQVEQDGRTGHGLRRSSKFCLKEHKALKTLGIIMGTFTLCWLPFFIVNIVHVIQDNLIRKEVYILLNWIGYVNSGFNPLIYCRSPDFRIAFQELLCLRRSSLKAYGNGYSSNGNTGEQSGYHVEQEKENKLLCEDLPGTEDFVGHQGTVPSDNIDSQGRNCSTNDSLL
# Sequence of Alpha2C (P18825 whole entry): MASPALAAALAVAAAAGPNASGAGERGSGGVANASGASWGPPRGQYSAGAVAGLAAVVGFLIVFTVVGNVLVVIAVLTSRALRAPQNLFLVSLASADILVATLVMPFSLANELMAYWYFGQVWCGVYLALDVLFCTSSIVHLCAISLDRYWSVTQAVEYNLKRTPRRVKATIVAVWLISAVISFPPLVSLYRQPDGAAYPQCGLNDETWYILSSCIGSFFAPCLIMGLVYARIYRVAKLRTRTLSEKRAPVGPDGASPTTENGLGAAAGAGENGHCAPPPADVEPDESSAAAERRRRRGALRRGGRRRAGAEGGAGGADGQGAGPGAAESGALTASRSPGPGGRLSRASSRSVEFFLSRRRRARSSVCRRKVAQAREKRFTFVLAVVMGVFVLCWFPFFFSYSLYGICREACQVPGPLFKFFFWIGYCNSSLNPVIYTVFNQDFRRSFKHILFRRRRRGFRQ
# Sequence of CRF2 (Q13324 whole entry): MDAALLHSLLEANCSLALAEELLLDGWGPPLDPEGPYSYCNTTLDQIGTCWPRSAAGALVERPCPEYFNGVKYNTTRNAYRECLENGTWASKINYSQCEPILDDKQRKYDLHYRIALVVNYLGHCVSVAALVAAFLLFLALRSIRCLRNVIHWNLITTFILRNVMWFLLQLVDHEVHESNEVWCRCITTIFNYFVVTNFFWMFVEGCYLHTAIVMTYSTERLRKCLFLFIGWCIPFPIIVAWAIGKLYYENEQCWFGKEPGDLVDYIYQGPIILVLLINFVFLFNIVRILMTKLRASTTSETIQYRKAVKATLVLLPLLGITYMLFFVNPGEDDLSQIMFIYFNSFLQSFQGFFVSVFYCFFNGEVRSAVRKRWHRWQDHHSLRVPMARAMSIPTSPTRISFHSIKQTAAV
SMILES,Activity toward CRF2 in the absence of CRFBP(10 kD) [1],Activity at Beta2 (binding assay) [2],Activity at Alpha2C (binding assay) [3],Activity at M1 (binding assay) [4],Activity at MOR (binding assay) [5]
Brc1ccccc1-c1nnc(CSc2nnnn2-c2ccccc2)o1 [MLS-0046818],inactive,1%,8%,−15%,12%
CC(C)Cn1c(SCC(=O)N2CCc3ccccc3C2)nc2cc(Cl)ccc2c1=O [MLS-0219419],–,−13%,−5%,−15%,−4%
